Results on six compounds are retold here after publication PMC6119630 (Bioorganic & medicinal chemistry letters, 2018).

Data set [1] concerns PPARα. Description: Western blot analysis of PPARα expression in 661W cells. It counts as cell-based, mouse. The conditions noted are these: 24 h treatment. In general terms: A western blot detects proteins with antibodies after separation by electrophoresis.
For data set [2], the system named is PPARα target genes (Acadm, Cpt1a, Fabp3, Slc25a20). Description: RT-PCR of PPARα target genes in 661W cells. The data set is classed as cell-based, mouse. The conditions noted are these: 24 h treatment, n=6.
In data set [3] the test system is human retinal capillary endothelial cells (HRCEC). Description: in vitro wound healing assay. It counts as cell-based. Conditions: 10 h and 24 h incubation.
The target in data set [4] is T1, hPPARα (Homo sapiens, UniProt Q07869).
T1 sequence (Q07869 1-468): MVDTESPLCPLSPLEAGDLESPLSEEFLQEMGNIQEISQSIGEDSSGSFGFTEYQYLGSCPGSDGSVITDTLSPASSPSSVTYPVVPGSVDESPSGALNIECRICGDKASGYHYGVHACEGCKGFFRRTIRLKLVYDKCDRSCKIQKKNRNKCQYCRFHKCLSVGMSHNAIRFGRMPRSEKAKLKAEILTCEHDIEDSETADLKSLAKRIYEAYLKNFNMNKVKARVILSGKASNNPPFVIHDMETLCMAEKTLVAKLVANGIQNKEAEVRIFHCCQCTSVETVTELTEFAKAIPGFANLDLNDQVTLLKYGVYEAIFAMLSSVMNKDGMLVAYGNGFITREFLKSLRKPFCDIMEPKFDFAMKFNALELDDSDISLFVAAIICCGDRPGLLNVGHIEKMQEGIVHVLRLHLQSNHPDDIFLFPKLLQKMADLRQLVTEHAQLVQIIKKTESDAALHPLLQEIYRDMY
Description: cell-based.

Data set [5] addresses T1, hPPARα. Description: PPARα luciferase cell reporter assay. Conditions: for PPAR isoform selectivity profile: hPPARδ, hPPARγ luciferase cell-lines. In general terms: A reporter such as luciferase makes a cellular process visible.
In data set [6] the test system is PPARα. Conditions: read-out: EC50 in biochemical PPARα assays; cited from earlier work.
The subject of data set [7] is retinas of mice and diabetic rats. The conditions noted are these: cited from earlier work.
For data set [8], the system named is type 2 diabetic patients. Conditions: FIELD and ACCORD; cited from earlier work.

Structures are written as SMILES.

`COc1ccc(COc2ccc(CNc3cccc(C(=O)O)c3)cc2)cc1` [Compound 10]: the “PPARα expression (Western blot)” value in data set [1] was “induced the expression of PPARα in a dose-dependent manner”. Besides, the “expression of PPARα target genes (RT-PCR)” value in data set [2] is given as “induces the expression of various PPARα target genes”. For the same compound, in data set [3], the “wound closure (cell migration)” value is reported as “inhibits wound closure in a dose-dependent fashion”. The EC50 (in general, the midpoint of the concentration-response curve) in data set [4] was about 6 µM.
`COc1ccc(COc2ccc(CNc3cccc(C(=O)O)c3)c(OCc3ccc(OC)cc3)c2)cc1` [Compound 26]: the “PPAR isoform selectivity profile” value in data set [5] (hPPARα) is listed as “maintains the selectivity”.
Consider `COc1ccc(COc2ccc(CNc3cccc(OC(C)(C)C(=O)O)c3)c(OCc3ccc(OC)cc3)c2)cc1` [Compound 28], for which the “PPAR isoform selectivity profile” value in data set [5] (hPPARα) is on record as “pan-agonist profile was maintained”. Besides, the “improvement in potency versus 22” value in data set [5] (hPPARα, compare 22 and 28) was 10 fold.
For `Cc1c(Cl)ccc2c(C(=O)O)cc(-c3ccccc3)nc12` [Compound Y-0452, 7-chloro-8-methyl-2-phenylquinoline-4-carboxylic acid], the EC50 in data set [6] is 25 to 50 µM. For the same compound, the “toxicity in the retinas” value in data set [7] (mice and diabetic rats) was “without signs of toxicity”. Also, in data set [7] (retinas of mice and diabetic rats), the “effects in vivo against DR” value is given as “protective effects in vivo against DR”.
In the case of `Cc1nc(-c2ccc(C(F)(F)F)cc2)sc1C(=O)NCc1ccc(OC(C)(C)C(=O)O)cc1` [GW590735, reference compound], the “cytotoxicity in reporter assay” value in data set [5] (concentrations higher than 10 μM) is reported as “observed cytotoxicity at higher concentrations”.
With `CC(C)OC(=O)C(C)(C)Oc1ccc(C(=O)c2ccc(Cl)cc2)cc1` [fenofibrate], the “effects against diabetic macular edema (DME) and retinal NV” value in data set [8] is reported as “robust protective effects”.
